Test results reported in patent US12357603B2, “Acyl sulfonamides for treating cancer” (Bayer Aktiengesellschaft, priority 2019, dated 2025).

What was measured:
[1] = biological target: Recombinant human His-tagged Kat6a protein (amino acids 194-810) (Homo sapiens (Human), UniProt Q92794); assay: Kat6a activity assay (TR-FRET, acetylation of biotinylated Histone-H4-derived peptide); type: biochemical; settings: 60 mins at 22° C., read-out: KAT6A-DPF/HAT domain IC50 [mol/l] (arithmetic mean)
How it was run: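 Sf9-expressed human His-Kat6a (aa 194-810) incubated 60 min at 22 °C with compounds (0.01-20 μM) in Tris pH 8 buffer containing 220 nM biotinylated H4 peptide (aa 1-24) and 600 nM acetyl-CoA. Acetyl-K8 detected by TR-FRET (665/620 nm ratio); IC50 by four-parameter fit versus DMSO controls.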

[2] = biological target: Recombinant human GST-tagged Kat6b protein (431-end); assay: Kat6b activity assay (TR-FRET, acetylation of biotinylated Histone-H4-derived peptide); type: biochemical; settings: 30 mins at 22° C., read-out: KAT6B activity assay IC50 [mol/l] (arithmetic mean)
MDA-MB-436 cells = assay: Proliferation assay MDA-MB-436, negative control cell line (Alamar Blue, 144 h); type: cell-based; settings: Homo sapiens, MDA-MB-436, 144 h, arithmetic mean
How it was run: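 MDA-MB-436 cells (3000/well, DMEM/Ham's F12 with 2.5% FBS) treated 24 h after plating with compounds at 2.0×10E-5 to 2.0×10E-9 M (9 dilutions, 0.2% DMSO), triplicates, 144 h at 37 °C, 5% CO2. Viability by Alamar Blue, 2 h, fluorescence at 590 nm.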

ZR-75-1 cells = assay: Proliferation assay ZR-75-1 (Alamar Blue, 144 h); type: cell-based; settings: Homo sapiens, ZR-75-1, 144 h, arithmetic mean, read-out: ZR75-1 proliferation assay, EC50 [M] (arithmetic mean)
How it was run: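 Cells seeded at 3000/well in RPMI 1640 with 2.5% FBS and treated 24 h later across 2.0×10E-5 to 2.0×10E-9 M (9 dilutions, 0.2% DMSO, triplicate). After 144 h at 37 °C, 5% CO2, viability read by Alamar Blue fluorescence at 590 nm following 2 h reagent incubation.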

[3] = system: ESR1 transcription (luciferase signal in MVLN cells); assay: Repression of ESR1 transcription, luciferase reporter in MVLN cells; type: cell-based; settings: Homo sapiens, MVLN, inhibition of luciferase signal in MVLN cells; arithmetic mean
How it was run: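 MVLN cells (constitutive ER, stably carrying a Vitellogenin A2 hormone-responsive element–luciferase reporter) treated in duplicate; luciferase read after 24 h. Cell density checked by Alamar Blue fluorescence (530/590 nm) after 2 h to exclude cell-loss effects.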

Recombinant human His-tagged Kat6a protein (amino acids 194-810), sequence (Q92794 194-810): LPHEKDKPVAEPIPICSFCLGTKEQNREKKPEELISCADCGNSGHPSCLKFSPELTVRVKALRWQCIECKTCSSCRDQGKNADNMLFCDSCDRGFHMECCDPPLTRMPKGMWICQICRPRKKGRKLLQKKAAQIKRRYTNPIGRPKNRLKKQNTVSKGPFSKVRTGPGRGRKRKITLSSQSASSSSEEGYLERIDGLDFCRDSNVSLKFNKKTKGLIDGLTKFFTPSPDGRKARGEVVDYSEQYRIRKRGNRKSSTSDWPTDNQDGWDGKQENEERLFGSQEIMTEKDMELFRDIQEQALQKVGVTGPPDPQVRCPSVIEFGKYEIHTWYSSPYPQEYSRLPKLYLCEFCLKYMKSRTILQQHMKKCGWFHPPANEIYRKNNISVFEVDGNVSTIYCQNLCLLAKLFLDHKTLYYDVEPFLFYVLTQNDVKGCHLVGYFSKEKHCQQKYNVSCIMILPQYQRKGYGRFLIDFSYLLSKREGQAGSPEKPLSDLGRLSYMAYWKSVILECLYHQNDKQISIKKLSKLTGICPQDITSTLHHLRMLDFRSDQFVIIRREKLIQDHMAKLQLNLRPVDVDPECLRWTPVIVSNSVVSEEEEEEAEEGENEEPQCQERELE

| Structure (SMILES) | IC50 [1] [µM] | IC50 [2] [µM] | EC50 (MDA-MB-436 cells) [µM] | EC50 (ZR-75-1 cells) [M] | IC50 [3] [µM] |
| --- | --- | --- | --- | --- | --- |
| CCOc1ccc([N+](=O)[O-])cc1S(=O)(=O)NC(=O)c1cc2ccc(N(C)C)cc2o1 [Example 88, 6-(Dimethylamino)-N-(2-ethoxy-5-nitrobenzene-1-sulfonyl)-1-benzofuran-2-carboxamide] | 0.105 | 0.205 | 4.65 | 3.2e-07 | 0.256 |
| CC(C)Oc1cccc(Cl)c1S(=O)(=O)NC(=O)c1cc2ccc(N(C)C)cc2o1 [Example 89, N-{2-chloro-6-[(propan-2-yl)oxy]benzene-1-sulfonyl}-6-(dimethylamino)-1-benzofuran-2-carboxamide] | 0.131 | 0.172 | > 20 | 4.45e-07 | 0.279 |
| CCCCCOc1ccccc1S(=O)(=O)NC(=O)c1cc2ccc(N(C)C)cc2o1 [Example 90, 6-(Dimethylamino)-N-[2-(pentyloxy)benzene-1-sulfonyl]-1-benzofuran-2-carboxamide] | 0.194 | 0.357 | > 20 | 8.08e-07 | 0.312 |
| Cc1ccnc2c(S(=O)(=O)NC(=O)c3cc4ccc(N(C)C)cc4o3)cccc12 [Example 91, 6-(Dimethylamino)-N-(4-methylquinoline-8-sulfonyl)-1-benzofuran-2-carboxamide] | 0.0742 | 0.0922 | > 20 | 7.79e-07 | 0.365 |
| CC(C)Cc1ccc2cccc(S(=O)(=O)NC(=O)c3cc4ccc(N(C)C)cc4o3)c2n1 [Example 93, 6-(Dimethylamino)-N-[2-(2-methylpropyl)quinoline-8-sulfonyl]-1-benzofuran-2-carboxamide] | 0.1 | 0.173 | > 20 | 8.56e-07 | 0.457 |
| CCOc1cccnc1S(=O)(=O)NC(=O)c1cc2ccc(N(C)C)cc2o1 [Example 101, 6-(Dimethylamino)-N-(3-ethoxypyridine-2-sulfonyl)-1-benzofuran-2-carboxamide] | 0.502 | 0.61 | > 20 | 1.4e-06 | 1.44 |
| CN(C)c1cc(F)c2cc(C(=O)NS(=O)(=O)c3ccccc3OC3CC3)oc2c1 [Example 110, N-[2-(Cyclopropyloxy)benzene-1-sulfonyl]-6-(dimethylamino)-4-fluoro-1-benzofuran-2-carboxamide] | 0.00748 | 0.00382 | > 20 | 7.12e-08 | 0.0124 |
| CCCOc1ccccc1S(=O)(=O)NC(=O)c1cc2c(F)cc(N(C)C)cc2o1 [Example 111, 6-(Dimethylamino)-4-fluoro-N-(2-propoxybenzene-1-sulfonyl)-1-benzofuran-2-carboxamide] | 0.00893 | 0.019 | > 20 | 4.89e-08 | 0.0154 |
| COc1ccccc1S(=O)(=O)NC(=O)c1cc2c(F)cc(N(C)C)cc2o1 [Example 112, 6-(Dimethylamino)-4-fluoro-N-(2-methoxybenzene-1-sulfonyl)-1-benzofuran-2-carboxamide] | 0.0177 | 0.0181 | > 20 | 4.78e-08 | 0.0452 |
| CCOc1ccc(Br)cc1S(=O)(=O)NC(=O)c1cc2c(F)cc(N(C)C)cc2o1 [Example 113, N-(5-Bromo-2-ethoxybenzene-1-sulfonyl)-6-(dimethylamino)-4-fluoro-1-benzofuran-2-carboxamide] | 0.00725 | 0.00724 | > 20 | 1.02e-07 | 0.0703 |
| COc1ccccc1S(=O)(=O)NC(=O)c1cc2ccc(N(C)C)cc2o1 [Example 114, 6-(Dimethylamino)-N-(2-methoxybenzene-1-sulfonyl)-1-benzofuran-2-carboxamide] | 0.114 | 0.15 | > 20 | 1.07e-07 | 0.058 |
| CCCOc1ccc(C)cc1S(=O)(=O)NC(=O)c1cc2ccc(N(C)C)cc2o1 [Example 115, 6-(Dimethylamino)-N-(5-methyl-2-propoxybenzene-1-sulfonyl)-1-benzofuran-2-carboxamide] | 0.0646 | 0.0872 | > 20 | 7.02e-08 | 0.0642 |
| CCOc1cccc(C)c1S(=O)(=O)NC(=O)c1cc2ccc(N(C)C)cc2o1 [Example 116, 6-(Dimethylamino)-N-(2-ethoxy-6-methylbenzene-1-sulfonyl)-1-benzofuran-2-carboxamide] | 0.453 | 0.508 | > 20 | 3.24e-07 | 0.27 |
| CN(C)c1ccc2cc(C(=O)NS(=O)(=O)c3ccccc3OCCNC(=O)OC(C)(C)C)oc2c1 [Example 117, tert-butyl [2-(2-{[6-(dimethylamino)-1-benzofuran-2-carbonyl]sulfamoyl}phenoxy)ethyl]carbamate] | 0.294 | 0.342 | > 20 | 6.03e-07 | 0.276 |
| CCCOc1cccc(CC)c1S(=O)(=O)NC(=O)c1cc2ccc(N(C)C)cc2o1 [Example 119, 6-(Dimethylamino)-N-(2-ethyl-6-propoxybenzene-1-sulfonyl)-1-benzofuran-2-carboxamide] | 0.185 | 0.374 | > 20 | 6.98e-07 | 0.218 |
| CCOc1cccc(Br)c1S(=O)(=O)NC(=O)c1cc2ccc(N(C)C)cc2o1 [Example 121, N-(2-Bromo-6-ethoxybenzene-1-sulfonyl)-6-(dimethylamino)-1-benzofuran-2-carboxamide] | 0.179 | 0.227 | > 20 | 3.56e-07 | 0.275 |
| CCOc1cccc(F)c1S(=O)(=O)NC(=O)c1cc2ccc(N(C)C)cc2o1 [Example 123, 6-(Dimethylamino)-N-(2-ethoxy-6-fluorobenzene-1-sulfonyl)-1-benzofuran-2-carboxamide] | 0.275 | 0.257 | > 20 | 1.19e-07 | 0.179 |
| CN(C)c1ccc2cc(C(=O)NS(=O)(=O)c3cccc4ccc(Cl)nc34)oc2c1 [Example 126, N-(2-Chloroquinoline-8-sulfonyl)-6-(dimethylamino)-1-benzofuran-2-carboxamide] | 0.0205 | 0.0238 | > 20 | 6.98e-08 | 0.0306 |
| CCOc1ccc(C(C)C)cc1S(=O)(=O)NC(=O)c1cc2ccc(N(C)C)cc2o1 [Example 129, 6-(Dimethylamino)-N-[2-ethoxy-5-(propan-2-yl)benzene-1-sulfonyl]-1-benzofuran-2-carboxamide] | 0.0135 | 0.0168 | > 20 | 6.17e-07 | 0.0286 |
| COc1cccc(C(F)(F)F)c1S(=O)(=O)NC(=O)c1cc2ccc(N(C)C)cc2o1 [Example 132, 6-(Dimethylamino)-N-[2-methoxy-6-(trifluoromethyl)benzene-1-sulfonyl]-1-benzofuran-2-carboxamide] | 0.134 | 0.0727 | > 20 | 1.05e-07 | 0.0801 |
| CN(C)c1ccc2cc(C(=O)NS(=O)(=O)c3cc(Cl)c(Cl)cc3OC(F)(F)F)oc2c1 [Example 137, N-[4,5-Dichloro-2-(trifluoromethoxy)benzene-1-sulfonyl]-6-(dimethylamino)-1-benzofuran-2-carboxamide] | 0.0815 | 0.107 | > 20 | 5.61e-06 | 5.5 |
| COc1cc(C)c(Cl)cc1S(=O)(=O)NC(=O)c1cc2ccc(N(C)C)cc2o1 [Example 138, N-(5-Chloro-2-methoxy-4-methylbenzene-1-sulfonyl)-6-(dimethylamino)-1-benzofuran-2-carboxamide] | 0.0567 | 0.0795 | > 20 | 5.01e-07 | 0.216 |
| COc1ccc(Cl)c(S(=O)(=O)NC(=O)c2cc3ccc(N(C)C)cc3o2)c1 [Example 139, N-(2-Chloro-5-methoxybenzene-1-sulfonyl)-6-(dimethylamino)-1-benzofuran-2-carboxamide] | 0.329 | 0.369 | > 20 | 7.07e-07 | 1.37 |
| CN(C)c1ccc2cc(C(=O)NS(=O)(=O)c3c(F)cccc3OC3CCC3)oc2c1 [Example 142, N-[2-(Cyclobutyloxy)-6-fluorobenzene-1-sulfonyl]-6-(dimethylamino)-1-benzofuran-2-carboxamide] | 0.139 | 0.229 | > 20 | 4.37e-07 | 0.166 |
